Results: patent US5164390A, “6-substituted purinyl piperazine derivatives” (Ortho Pharmaceutical Corporation, priority 1991, dated 1992)
Read-outs that look alike come from different tables or passages of the source.

System: Adult mongrel dogs
Test: Cardiotonic activity: hemodynamic and inotropic responses (MAP, HR, dP/dt, contractile force) in anesthetized dogs, iv infusion
Assay type: in vivo, mongrel dog
Conditions: Canis lupus familiaris
Description: Adult mongrel dogs were anesthetized with sodium pentobarbital (45 mg/kg, i.p.) and artificially respired. Mean arterial pressure (MAP) was recorded from a cannulated femoral artery and drugs were infused into a cannulated femoral vein. The arterial pressure pulse was used to trigger a cardiotachometer for determination of heart rate (HR). Left ventricular pressure was measured with a Millar catheter and dP/dtmax was derived. A right thoracotomy was performed and myocardial contractile force (CF) was measured with a Walton Brodie strain gauge sutured to the right ventricle. The ventricular muscle was stretched to produce a baseline tension of 100 g. A standard dose of dopamine (10-15 ug/kg/min for 3 min) was administered to determine myocardial responsiveness to inotropic stimulation.
Test compounds were solubilized in a small volume of DMF diluted to a final concentration of 10% in physiological saline. Alternatively, where possible, a soluble hydrochloride salt was prepared by addition of 0.1N HCl diluted in physiological saline. Vehicles were tested in appropriate volumes and found to exert less than a 5% effect on contractile force. For iv studies, compounds were administered by infusion pump (one drug per animal) at rates of 0.58-2.2 mL/min in three to four stepwise increasing doses. Each dose was infused over 5 min immediately after the effect of the previous dose peaked. MAP, HR, dP/dtmax and CF responses were continuously monitored on a Beckman or Gould recorder and expressed as a percent change from pre-drug control values vs. the cumulative dose of drug administered. For these studies, n represents the number of test animals used.
Quantitation of the inotropic potency was obtained by calculation of the contractile force (CF) ED50. This was defined as the dose of compound that produced a 50% increase above baseline in myocardial contractile force. The value was obtained from three to four point dose-response curves using either graphical estimation (n<3) or linear regression analysis (n≥3). Numbers in parentheses are number of animals screened.

[1] = Table 1, 1.875 mg/kg iv, cumulative dose, read-out: CF (myocardial contractile force), % from Control
[2] = Table 1, 1.875 mg/kg iv, cumulative dose, read-out: HR (heart rate), % from Control
[3] = Table 1, 1.875 mg/kg iv, cumulative dose, read-out: MAP (mean arterial pressure), % from Control
[4] = Table 1, 1.875 mg/kg iv, cumulative dose, read-out: dPdt (left ventricular dP/dtmax), % from Control

Row | SMILES | change in vivo at 1.875 mg/kg [1] | change in vivo at 1.875 mg/kg [2] | change in vivo at 1.875 mg/kg [3] | change in vivo at 1.875 mg/kg [4] | change in vivo at 1.875 mg/kg (Table 2, 1.875 mpk iv, read-out: CF (myocardial contractile force), percent change from pre-drug control) | change in vivo at 1.875 mg/kg (Table 2, 1.875 mpk iv, read-out: HR (heart rate), percent change from pre-drug control) | change in vivo at 1.875 mg/kg (Table 2, 1.875 mpk iv, read-out: MAP (mean arterial pressure), percent change from pre-drug control) | change in vivo at 1.875 mg/kg (Table 2, 1.875 mpk iv, read-out: dP/dt (left ventricular dP/dtmax), percent change from pre-drug control)
1 | OC(CSc1ncnc2[nH]cnc12)CN1CCN(Cc2ccc3c(c2)OCO3)CC1 (stereo not drawn) [Example 6, 6-[3-[4-(1,3-Benzodioxol-5-yl)methyl]piperazin-1-yl]-2-hydroxyprop-1-ylthio]purine Sesquihydrate] | 79% | 15% | 4% | 80% |  |  |  | 
2 | OC(CSc1ncnc2[nH]cnc12)CN1CCN(C(c2ccc(C(F)(F)F)cc2)c2cccc(C(F)(F)F)c2)CC1 (stereo not drawn) [Example 10, 6-[1-[1-(3,4'[Bis(trifluoromethylphenyl)methyl])piperazin-4-yl]-2-hydroxy-3-propanylthio]purine] | 71% | 0% | 5% | 47% |  |  |  | 
3 | CN(CC(O)CN1CCN(C(c2ccc(F)cc2)c2ccc(F)cc2)CC1)c1ncnc2[nH]cnc12 (stereo not drawn) [Example 28, 6-[3-[4-[Bis(4-fluorophenyl)methyl]piperazin-1-yl]-2-hydroxypropyl-N-methylamino]purine Hemihydrate] |  |  |  |  | 95% | 16% | 9% | 82%
